Data published in ChEMBL document CHEMBL3580543, “C-Geranylated Flavanones from Paulownia tomentosa Fruits as Potential Anti-inflammatory Compounds Acting via Inhibition of TNF-α Production” (J Nat Prod, 2015).
Calls of active or inactive are those of the source. No cut-off for these calls is given here.

tested on: THP-1; assay: Antiinflammatory activity in differentiated human THP1 cells assessed as inhibition of LPS-induced IkappaB degradation at 2 uM pretreated for 1 hr measured after 30 mins of LPS stimulation by Western blot analysis; type: functional, cell-based; settings: not given

| Compound | Activity |
| --- | --- |
| COc1cc([C@@H]2CC(=O)c3c(cc4c(c3O)CC(O)C(C)(CCC=C(C)C)O4)O2)ccc1O (stereo partly drawn) | Active |
| CC(C)=CCC/C(C)=C/Cc1c(O)cc2c(c1O)C(=O)C[C@@H](c1ccc(O)c(O)c1)O2 [NYMPHAEOL A] | Active |
| COc1cc([C@@H]2CC(=O)c3c(cc(O)c(C/C=C(\C)CCC=C(C)C)c3O)O2)ccc1O | Active |
| C=C(CCC=C(C)C)C(O)Cc1c(O)cc2c(c1O)C(=O)C[C@@H](c1ccc(O)cc1)O2 (stereo partly drawn) | Active |
| COc1cc([C@@H]2CC(=O)c3c(cc(O)c(C/C=C(\C)CCC=C(C)C)c3O)O2)cc(O)c1OC | Active |

tested on: THP-1; assay: Cytotoxicity against human THP1 cells assessed as cell viability after 24 hrs by WST assay; type: cell-based; settings: THP-1, 24 h

| Compound | IC50 |
| --- | --- |
| COc1cc([C@@H]2CC(=O)c3c(cc(O)c(C/C=C(\C)CCC=C(C)C)c3O)O2)cc(OC)c1O | < 10 µM |
| COc1cc([C@@H]2CC(=O)c3c(cc4c(c3O)CC(C(C)(O)CCC=C(C)C)O4)O2)ccc1O (stereo partly drawn) | < 10 µM |
| COc1cc([C@H]2Oc3cc4c(c(O)c3C(=O)[C@@H]2O)C=CC(C)(CCC=C(C)C)O4)ccc1O (stereo partly drawn) | > 10 µM |
| CC(C)=CCCC(C)(O)C1Cc2c(cc3c(c2O)C(=O)CC(c2ccc(O)cc2)O3)O1 (stereo not drawn) | > 10 µM |
| COc1cc(C2CC(=O)c3c(cc(O)c(C/C=C(\C)CCC(O)C(C)(C)OC)c3O)O2)cc(OC)c1O (stereo not drawn) | > 10 µM |
| C=C(CCC=C(C)C)C(O)Cc1c(O)cc2c(c1O)C(=O)C[C@@H](c1ccc(O)c(OC)c1)O2 (stereo partly drawn) | < 6.5 µM |
| COc1cc(C2CC(=O)c3c(cc(O)c(C/C=C(\C)CCC(O)C(C)(C)O)c3O)O2)cc(OC)c1O (stereo not drawn) | > 10 µM |
| COC(C)(C)C(O)CC/C(C)=C/Cc1c(O)cc2c(c1O)C(=O)C[C@@H](c1ccc(O)cc1)O2 (stereo partly drawn) | > 10 µM |
| COc1cc([C@@H]2CC(=O)c3c(cc(O)c(C/C=C(\C)CCC(O)C(C)(C)OC)c3O)O2)ccc1O (stereo partly drawn) | > 10 µM |
| COc1cc([C@@H]2CC(=O)c3c(cc4c(c3O)CC(O)C(C)(CCC=C(C)C)O4)O2)ccc1O (stereo partly drawn) | < 10 µM |
| COc1ccc([C@@H]2CC(=O)c3c(cc(O)c(C/C=C(\C)CCC=C(C)C)c3O)O2)cc1OC | < 10 µM |
| COc1cc([C@@H]2CC(=O)c3c(cc(O)c(C/C=C(\C)C/C=C/C(C)(C)O)c3O)O2)ccc1O [TOMENTODIPLACONE B] | > 10 µM |
| CC(C)=CCC/C(C)=C/Cc1c(O)cc2c(c1O)C(=O)C[C@@H](c1ccc(O)c(O)c1)O2 [NYMPHAEOL A] | > 10 µM |
| COc1cc([C@@H]2CC(=O)c3c(cc(O)c(CC=C(C)C)c3O)O2)ccc1O | > 10 µM |
| CC(C)=CCC/C(C)=C/Cc1c(O)cc2c(c1O)C(=O)C[C@@H](c1ccc(O)cc1)O2 [BONANNIONE A] | < 10 µM |
| CC(C)=CCCC1(C)C=Cc2c(cc3c(c2O)C(=O)C[C@@H](c2cc(O)cc(O)c2)O3)O1 (stereo partly drawn) | > 10 µM |
| COc1cc([C@@H]2CC(=O)c3c(cc(O)c(C/C=C(\C)CCC=C(C)C)c3O)O2)ccc1O | < 10 µM |
| COc1cc([C@@H]2CC(=O)c3c(O)cc(O)cc3O2)cc(OC)c1OC | > 10 µM |
| C/C(=C\Cc1c(O)cc2c(c1O)C(=O)C[C@@H](c1ccc(O)cc1)O2)CCC(O)C(C)(C)O (stereo partly drawn) | > 10 µM |
| COc1cc([C@H]2Oc3cc(O)c(C/C=C(\C)CCC=C(C)C)c(O)c3C(=O)[C@@H]2O)ccc1O | < 10 µM |
| O=C1C[C@@H](c2ccc(O)cc2)Oc2cc(O)cc(O)c21 [NARINGENIN] | > 10 µM |
| C=C(CCC=C(C)C)C(O)Cc1c(O)cc2c(c1O)C(=O)C[C@@H](c1ccc(O)cc1)O2 (stereo partly drawn) | > 11.4 µM |
| COc1cc([C@@H]2CC(=O)c3c(cc(O)c(C/C=C(\C)CCC=C(C)C)c3O)O2)cc(O)c1OC | < 10 µM |
| O=C1C[C@@H](c2ccc(O)c(O)c2)Oc2cc(O)cc(O)c21 [ERIODICTYOL] | > 10 µM |
| C=C(C)C1CCC(C)(C(O)Cc2c(O)cc3c(c2O)C(=O)C[C@@H](c2ccc(O)c(OC)c2)O3)O1 (stereo partly drawn) | > 10 µM |

tested on: THP-1; assay: Cytotoxicity against human THP1 cells at 2 uM after 24 hrs by WST assay; type: cell-based; settings: thp-1, 24 h

| Compound | Activity |
| --- | --- |
| COc1cc([C@@H]2CC(=O)c3c(cc(O)c(C/C=C(\C)CCC=C(C)C)c3O)O2)cc(OC)c1O | Non-toxic |
| COc1cc([C@@H]2CC(=O)c3c(cc4c(c3O)CC(C(C)(O)CCC=C(C)C)O4)O2)ccc1O (stereo partly drawn) | Non-toxic |
| COc1cc([C@H]2Oc3cc4c(c(O)c3C(=O)[C@@H]2O)C=CC(C)(CCC=C(C)C)O4)ccc1O (stereo partly drawn) | Non-toxic |
| CC(C)=CCCC(C)(O)C1Cc2c(cc3c(c2O)C(=O)CC(c2ccc(O)cc2)O3)O1 (stereo not drawn) | Non-toxic |
| COc1cc(C2CC(=O)c3c(cc(O)c(C/C=C(\C)CCC(O)C(C)(C)OC)c3O)O2)cc(OC)c1O (stereo not drawn) | Non-toxic |
| C=C(CCC=C(C)C)C(O)Cc1c(O)cc2c(c1O)C(=O)C[C@@H](c1ccc(O)c(OC)c1)O2 (stereo partly drawn) | Non-toxic |
| COc1cc(C2CC(=O)c3c(cc(O)c(C/C=C(\C)CCC(O)C(C)(C)O)c3O)O2)cc(OC)c1O (stereo not drawn) | Non-toxic |
| COC(C)(C)C(O)CC/C(C)=C/Cc1c(O)cc2c(c1O)C(=O)C[C@@H](c1ccc(O)cc1)O2 (stereo partly drawn) | Non-toxic |
| COc1cc([C@@H]2CC(=O)c3c(cc(O)c(C/C=C(\C)CCC(O)C(C)(C)OC)c3O)O2)ccc1O (stereo partly drawn) | Non-toxic |
| COc1cc([C@@H]2CC(=O)c3c(cc4c(c3O)CC(O)C(C)(CCC=C(C)C)O4)O2)ccc1O (stereo partly drawn) | Non-toxic |
| COc1ccc([C@@H]2CC(=O)c3c(cc(O)c(C/C=C(\C)CCC=C(C)C)c3O)O2)cc1OC | Non-toxic |
| COc1cc([C@@H]2CC(=O)c3c(cc(O)c(C/C=C(\C)C/C=C/C(C)(C)O)c3O)O2)ccc1O [TOMENTODIPLACONE B] | Non-toxic |
| CC(C)=CCC/C(C)=C/Cc1c(O)cc2c(c1O)C(=O)C[C@@H](c1ccc(O)c(O)c1)O2 [NYMPHAEOL A] | Non-toxic |
| COc1cc([C@@H]2CC(=O)c3c(cc(O)c(CC=C(C)C)c3O)O2)ccc1O | Non-toxic |
| CC(C)=CCC/C(C)=C/Cc1c(O)cc2c(c1O)C(=O)C[C@@H](c1ccc(O)cc1)O2 [BONANNIONE A] | Non-toxic |
| CC(C)=CCCC1(C)C=Cc2c(cc3c(c2O)C(=O)C[C@@H](c2cc(O)cc(O)c2)O3)O1 (stereo partly drawn) | Non-toxic |
| COc1cc([C@@H]2CC(=O)c3c(cc(O)c(C/C=C(\C)CCC=C(C)C)c3O)O2)ccc1O | Non-toxic |
| COc1cc([C@@H]2CC(=O)c3c(O)cc(O)cc3O2)cc(OC)c1OC | Non-toxic |
| C/C(=C\Cc1c(O)cc2c(c1O)C(=O)C[C@@H](c1ccc(O)cc1)O2)CCC(O)C(C)(C)O (stereo partly drawn) | Non-toxic |
| COc1cc([C@H]2Oc3cc(O)c(C/C=C(\C)CCC=C(C)C)c(O)c3C(=O)[C@@H]2O)ccc1O | Non-toxic |
| O=C1C[C@@H](c2ccc(O)cc2)Oc2cc(O)cc(O)c21 [NARINGENIN] | Non-toxic |
| C=C(CCC=C(C)C)C(O)Cc1c(O)cc2c(c1O)C(=O)C[C@@H](c1ccc(O)cc1)O2 (stereo partly drawn) | Non-toxic |
| COc1cc([C@@H]2CC(=O)c3c(cc(O)c(C/C=C(\C)CCC=C(C)C)c3O)O2)cc(O)c1OC | Non-toxic |
| O=C1C[C@@H](c2ccc(O)c(O)c2)Oc2cc(O)cc(O)c21 [ERIODICTYOL] | Non-toxic |
| C=C(C)C1CCC(C)(C(O)Cc2c(O)cc3c(c2O)C(=O)C[C@@H](c2ccc(O)c(OC)c2)O3)O1 (stereo partly drawn) | Non-toxic |

tested on: THP-1; assay: Cytotoxicity against human THP1 cells assessed as increase in ROS level at 2 uM; type: cell-based; settings: thp-1, 2 µM

| Compound | Activity |
| --- | --- |
| COc1cc([C@@H]2CC(=O)c3c(cc4c(c3O)CC(O)C(C)(CCC=C(C)C)O4)O2)ccc1O (stereo partly drawn) | Toxic |
| C=C(CCC=C(C)C)C(O)Cc1c(O)cc2c(c1O)C(=O)C[C@@H](c1ccc(O)cc1)O2 (stereo partly drawn) | Toxic |

tested on: THP-1; assay: Antiinflammatory activity in differentiated human THP1 cells assessed as inhibition of LPS-induced ROS level at 2 uM pretreated for 1 hr measured after 24 hrs of LPS stimulation by fluorescence assay; type: functional, cell-based; settings: not given

| Compound | Activity |
| --- | --- |
| COc1cc([C@@H]2CC(=O)c3c(cc4c(c3O)CC(O)C(C)(CCC=C(C)C)O4)O2)ccc1O (stereo partly drawn) | inactive |
| CC(C)=CCC/C(C)=C/Cc1c(O)cc2c(c1O)C(=O)C[C@@H](c1ccc(O)c(O)c1)O2 [NYMPHAEOL A] | inactive |
| COc1cc([C@@H]2CC(=O)c3c(cc(O)c(C/C=C(\C)CCC=C(C)C)c3O)O2)ccc1O | inactive |

tested on: THP-1; assay: Antiinflammatory activity in differentiated human THP1 cells assessed as inhibition of LPS-induced TNFalpha secretion at 2 uM after 24 hrs by ELISA; type: functional, cell-based; settings: not given

| Compound | Activity |
| --- | --- |
| COc1cc([C@@H]2CC(=O)c3c(cc(O)c(C/C=C(\C)CCC=C(C)C)c3O)O2)cc(OC)c1O | Active |
| COc1cc([C@H]2Oc3cc4c(c(O)c3C(=O)[C@@H]2O)C=CC(C)(CCC=C(C)C)O4)ccc1O (stereo partly drawn) | Active |
| COc1cc([C@@H]2CC(=O)c3c(cc4c(c3O)CC(O)C(C)(CCC=C(C)C)O4)O2)ccc1O (stereo partly drawn) | Active |
| COc1ccc([C@@H]2CC(=O)c3c(cc(O)c(C/C=C(\C)CCC=C(C)C)c3O)O2)cc1OC | Active |
| COc1cc([C@@H]2CC(=O)c3c(cc(O)c(C/C=C(\C)C/C=C/C(C)(C)O)c3O)O2)ccc1O [TOMENTODIPLACONE B] | Active |
| COc1cc([C@@H]2CC(=O)c3c(cc(O)c(C/C=C(\C)CCC=C(C)C)c3O)O2)ccc1O | Active |
| COc1cc([C@H]2Oc3cc(O)c(C/C=C(\C)CCC=C(C)C)c(O)c3C(=O)[C@@H]2O)ccc1O | Active |
| C=C(CCC=C(C)C)C(O)Cc1c(O)cc2c(c1O)C(=O)C[C@@H](c1ccc(O)cc1)O2 (stereo partly drawn) | Active |

tested on: THP-1; assay: Antiinflammatory activity in differentiated human THP1 cells assessed as inhibition of LPS-induced NFkappaB activation at 2 uM pretreated for 1 hr measured after 4 hrs of LPS stimulation by DAPI-staining based immunohistochemical analysis; type: functional, cell-based; settings: not given

| Compound | Activity |
| --- | --- |
| COc1cc([C@@H]2CC(=O)c3c(cc4c(c3O)CC(O)C(C)(CCC=C(C)C)O4)O2)ccc1O (stereo partly drawn) | Active |
| CC(C)=CCC/C(C)=C/Cc1c(O)cc2c(c1O)C(=O)C[C@@H](c1ccc(O)c(O)c1)O2 [NYMPHAEOL A] | Active |
| COc1cc([C@@H]2CC(=O)c3c(cc(O)c(C/C=C(\C)CCC=C(C)C)c3O)O2)ccc1O | Active |
| C=C(CCC=C(C)C)C(O)Cc1c(O)cc2c(c1O)C(=O)C[C@@H](c1ccc(O)cc1)O2 (stereo partly drawn) | Active |
| COc1cc([C@@H]2CC(=O)c3c(cc(O)c(C/C=C(\C)CCC=C(C)C)c3O)O2)cc(O)c1OC | Active |

tested on: THP-1; assay: Antiinflammatory activity in differentiated human THP1 cells assessed as inhibition of LPS-induced TNFalpha mRNA expression at 2 uM after 4 hrs by RT-qPCR analysis; type: functional, cell-based; settings: not given

| Compound | Activity |
| --- | --- |
| COc1cc([C@@H]2CC(=O)c3c(cc4c(c3O)CC(O)C(C)(CCC=C(C)C)O4)O2)ccc1O (stereo partly drawn) | Active |
| CC(C)=CCC/C(C)=C/Cc1c(O)cc2c(c1O)C(=O)C[C@@H](c1ccc(O)c(O)c1)O2 [NYMPHAEOL A] | Active |
| COc1cc([C@@H]2CC(=O)c3c(cc(O)c(C/C=C(\C)CCC=C(C)C)c3O)O2)ccc1O | Active |
| C=C(CCC=C(C)C)C(O)Cc1c(O)cc2c(c1O)C(=O)C[C@@H](c1ccc(O)cc1)O2 (stereo partly drawn) | Active |
| COc1cc([C@@H]2CC(=O)c3c(cc(O)c(C/C=C(\C)CCC=C(C)C)c3O)O2)cc(O)c1OC | Active |
